Here are results for 23 molecules from PMC12098659 (Scientific Reports, 2025).

What is called IC50 is the point on the concentration scale where inhibition reaches its midpoint. Low readings indicate higher potency, high ones lower potency. As usually defined, the inhibition is the change of the read-out against control, counted positive when it falls. For orientation: Ki means a measure of affinity in units of concentration, obtained from inhibition or displacement.

The target in one experiment is T1, α-glucosidase (Saccharomyces cerevisiae, UniProt P53341). Briefly: α-Glucosidase inhibition assay. The class given is biochemical.
T1 sequence (P53341 whole entry): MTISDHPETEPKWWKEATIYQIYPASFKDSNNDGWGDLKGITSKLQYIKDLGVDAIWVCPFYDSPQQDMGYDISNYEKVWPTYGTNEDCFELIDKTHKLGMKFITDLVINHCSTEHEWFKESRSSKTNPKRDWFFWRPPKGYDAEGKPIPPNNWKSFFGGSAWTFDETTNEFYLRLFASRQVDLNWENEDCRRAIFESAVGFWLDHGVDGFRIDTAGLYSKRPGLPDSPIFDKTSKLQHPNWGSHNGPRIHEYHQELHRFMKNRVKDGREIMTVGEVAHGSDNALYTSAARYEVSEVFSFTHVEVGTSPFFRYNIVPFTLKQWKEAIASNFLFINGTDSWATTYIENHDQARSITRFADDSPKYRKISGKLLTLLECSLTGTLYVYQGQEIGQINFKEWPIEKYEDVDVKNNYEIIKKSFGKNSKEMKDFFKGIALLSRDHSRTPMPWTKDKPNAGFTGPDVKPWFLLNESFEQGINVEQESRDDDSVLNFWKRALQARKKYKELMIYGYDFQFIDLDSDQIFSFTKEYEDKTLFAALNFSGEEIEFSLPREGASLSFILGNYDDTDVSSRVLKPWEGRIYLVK
Settings: not given
For the molecule `N#Cc1c(-c2ccccc2)c(N)c(-c2cccs2)n2nc(-c3ccccc3)nc12` [Compound 15g, 6-Amino-2,7-diphenyl-5-(thiophen-2-yl)-^1,2,4triazolo[1,5-a]pyridine-8-carbonitrile], half-maximal inhibition (IC50) was put at 45.73 ± 0.29 µM.
`N#Cc1c(-c2ccc(Cl)cc2)c(N)c(-c2cccs2)n2nc(-c3ccccc3)nc12` [Compound 15t, 6-Amino-7-(4-chlorophenyl)-2-phenyl-5-(thiophen-2-yl)-^1,2,4triazolo[1,5-a]pyridine-8-carbonitrile] gave an IC50 of 75.63 ± 0.44 µM.
As to `N#Cc1c(-c2ccccc2)c(N)c(-c2ccccc2Cl)n2nc(-c3ccccc3)nc12` [Compound 15e, 6-Amino-5-(2-chlorophenyl)-2,7-diphenyl-^1,2,4triazolo[1,5-a]pyridine-8-carbonitrile], the IC50 stood at 60.64 ± 0.18 µM.
On the same count and under the same terms, the figure for `COc1ccc(-c2c(N)c(-c3ccccc3)n3nc(-c4ccccc4)nc3c2C#N)cc1` [Compound 15m, 6-Amino-7-(4-methoxyphenyl)-2,5-diphenyl-^1,2,4triazolo[1,5-a]pyridine-8-carbonitrile] is 9.18 ± 0.12 µM.
In turn, `N#Cc1c(-c2ccc(Cl)cc2)c(N)c(-c2ccccc2)n2nc(-c3ccccc3)nc12` [Compound 15q, 6-Amino-7-(4-chlorophenyl)-2,5-diphenyl-^1,2,4triazolo[1,5-a]pyridine-8-carbonitrile] had an IC50 of 38.18 ± 0.14 µM.
Same read-out and setting: in the case of `N#Cc1c(-c2ccccc2)c(N)c(-c2ccc(Cl)cc2)n2nc(-c3ccccc3)nc12` [Compound 15c, 6-Amino-5-(4-chlorophenyl)-2,7-diphenyl-^1,2,4triazolo[1,5-a]pyridine-8-carbonitrile] it was 9.69 ± 0.09 µM.
As for `Cc1ccc(-c2c(N)c(-c3cccs3)n3nc(-c4ccccc4)nc3c2C#N)cc1` [Compound 15l, 6-Amino-2-phenyl-5-(thiophen-2-yl)-7-(p-tolyl)-^1,2,4triazolo[1,5-a]pyridine-8-carbonitrile], the midpoint of inhibition, the IC50, lay at 21.49 ± 0.09 µM.
Take `Cc1ccc(-c2c(N)c(-c3ccccc3)n3nc(-c4ccccc4)nc3c2C#N)cc1` [Compound 15h, 6-Amino-2,5-diphenyl-7-(p-tolyl)-^1,2,4triazolo[1,5-a]pyridine-8-carbonitrile]: the IC50 came out at 14.4 ± 0.43 µM.
As to `COc1ccc(-c2c(N)c(-c3ccc(C)cc3)c(C#N)c3nc(-c4ccccc4)nn23)cc1` [Compound 15i, 6-Amino-5-(4-methoxyphenyl)-2-phenyl-7-(p-tolyl)-^1,2,4triazolo[1,5-a]pyridine-8-carbonitrile], the half-inhibitory concentration (IC50) stood at 8.43 ± 0.25 µM.
Still for that read-out and setting: the figure for `N#Cc1c(-c2ccccc2)c(N)c(-c2ccc(Br)cc2)n2nc(-c3ccccc3)nc12` [Compound 15f, 6-Amino-5-(4-bromophenyl)-2,7-diphenyl-^1,2,4triazolo[1,5-a]pyridine-8-carbonitrile] is 32 ± 0.32 µM; for `COc1ccc(-c2c(N)c(-c3ccc(Cl)cc3)n3nc(-c4ccccc4)nc3c2C#N)cc1` [Compound 15o, 6-Amino-5-(4-chlorophenyl)-7-(4-methoxyphenyl)-2-phenyl-^1,2,4triazolo[1,5-a]pyridine-8-carbonitrile] it is 7.64 ± 0.13 µM; for `Cc1ccc(-c2c(N)c(-c3ccc(Br)cc3)n3nc(-c4ccccc4)nc3c2C#N)cc1` [Compound 15k, 6-Amino-5-(4-bromophenyl)-2-phenyl-7-(p-tolyl)-^1,2,4triazolo[1,5-a]pyridine-8-carbonitrile] it is 29.89 ± 0.17 µM.
`N#Cc1c(-c2ccccc2)c(N)c(-c2ccccc2)n2nc(-c3ccc(Cl)cc3)nc12` [Compound 15v, 6-Amino-2-(4-chlorophenyl)-5,7-diphenyl-^1,2,4triazolo[1,5-a]pyridine-8-carbonitrile] returned an IC50 of 25.13 ± 0.24 µM.
Take `COc1ccc(-c2c(N)c(-c3ccccc3)c(C#N)c3nc(-c4ccccc4)nn23)cc1` [Compound 15b, 6-Amino-5-(4-methoxyphenyl)-2,7-diphenyl-^1,2,4triazolo[1,5-a]pyridine-8-carbonitrile]: the IC50 is 25.5 ± 0.23 µM.
`COc1ccc(-c2c(N)c(-c3cccs3)n3nc(-c4ccccc4)nc3c2C#N)cc1` [Compound 15p, 6-Amino-7-(4-methoxyphenyl)-2-phenyl-5-(thiophen-2-yl)-^1,2,4triazolo[1,5-a]pyridine-8-carbonitrile] yielded an IC50 of 36.33 ± 0.09 µM. This IC50 and that of the molecule before are within 1.5-fold of each other.
Consider `N#Cc1c(-c2ccccc2)c(N)c(-c2cccc(Cl)c2)n2nc(-c3ccccc3)nc12` [Compound 15d, 6-Amino-5-(3-chlorophenyl)-2,7-diphenyl-^1,2,4triazolo[1,5-a]pyridine-8-carbonitrile], for which it took 45.54 ± 0.25 µM to reach half-maximal inhibition (IC50).
Consider `N#Cc1c(-c2ccc(Cl)cc2)c(N)c(-c2ccc(Cl)cc2)n2nc(-c3ccccc3)nc12` [Compound 15s, 6-Amino-5,7-bis(4-chlorophenyl)-2-phenyl-^1,2,4triazolo[1,5-a]pyridine-8-carbonitrile], for which the IC50 is 31.49 ± 0.08 µM.
Consider `COc1ccc(-c2c(N)c(-c3ccc(OC)cc3)n3nc(-c4ccccc4)nc3c2C#N)cc1` [Compound 15n, 6-Amino-5,7-bis(4-methoxyphenyl)-2-phenyl-^1,2,4triazolo[1,5-a]pyridine-8-carbonitrile], for which the IC50 was 22.31 ± 0.08 µM.
In the case of `COc1ccc(-c2c(N)c(-c3ccc(Cl)cc3)c(C#N)c3nc(-c4ccccc4)nn23)cc1` [Compound 15r, 6-Amino-7-(4-chlorophenyl)-5-(4-methoxyphenyl)-2-phenyl-^1,2,4triazolo[1,5-a]pyridine-8-carbonitrile], the midpoint of inhibition, the IC50, lay at 49.96 ± 0.11 µM.
The same measure, in the same setting: in the case of `Cc1ccc(-c2c(N)c(-c3ccc(Cl)cc3)n3nc(-c4ccccc4)nc3c2C#N)cc1` [Compound 15j, 6-Amino-5-(4-chlorophenyl)-2-phenyl-7-(p-tolyl)-^1,2,4triazolo[1,5-a]pyridine-8-carbonitrile] it was 6.6 ± 0.09 µM; in that of `N#Cc1c(-c2ccccc2)c(N)c(-c2ccccc2)n2nc(-c3ccccc3)nc12` [Compound 15a, 6-Amino-2,5,7-triphenyl-^1,2,4triazolo[1,5-a]pyridine-8-carbonitrile], 20.32 ± 0.11 µM; in that of `COc1ccc(-c2nc3c(C#N)c(-c4ccccc4)c(N)c(-c4ccccc4)n3n2)cc1` [Compound 15u, 6-Amino-2-(4-methoxyphenyl)-5,7-diphenyl-^1,2,4triazolo[1,5-a]pyridine-8-carbonitrile], 14.8 ± 0.22 µM.

The next experiment relates to α-amylase.
Test: not given
To be noted: 100 µM.
The molecule `C[C@H]1O[C@H](O[C@H]2[C@H](O)[C@@H](O)[C@@H](O[C@H]3[C@H](O)[C@@H](O)C(O)O[C@@H]3CO)O[C@@H]2CO)[C@H](O)[C@@H](O)[C@@H]1N[C@H]1C=C(CO)[C@@H](O)[C@H](O)[C@H]1O` (some centres unmarked) [Acarbose] yielded an inhibition of 50.1 ± 0.5%.

A further experiment addresses T1, α-glucosidase. Briefly: Enzyme kinetic study.
Settings: not given
Format: biochemical.
Regarding `Cc1ccc(-c2c(N)c(-c3ccc(Cl)cc3)n3nc(-c4ccccc4)nc3c2C#N)cc1` [Compound 15j, 6-Amino-5-(4-chlorophenyl)-2-phenyl-7-(p-tolyl)-^1,2,4triazolo[1,5-a]pyridine-8-carbonitrile], affinity was put at a Ki of 6.6 µM. This lies in the single-digit micromolar range.

The experiment is the same for the next values; noted with them: Lineweaver-Burk plot: Km increases, Vmax unchanged.
For `Cc1ccc(-c2c(N)c(-c3ccc(Cl)cc3)n3nc(-c4ccccc4)nc3c2C#N)cc1` [Compound 15j, 6-Amino-5-(4-chlorophenyl)-2-phenyl-7-(p-tolyl)-^1,2,4triazolo[1,5-a]pyridine-8-carbonitrile], the α-glucosidase inhibition mode entry is listed as “competitive”.

Staying with this experiment, now noted: enzyme treated with 6.6 µM compound 15j; untreated 62.5.
As to `Cc1ccc(-c2c(N)c(-c3ccc(Cl)cc3)n3nc(-c4ccccc4)nc3c2C#N)cc1` [Compound 15j, 6-Amino-5-(4-chlorophenyl)-2-phenyl-7-(p-tolyl)-^1,2,4triazolo[1,5-a]pyridine-8-carbonitrile], the “Maximum velocity (Vm) of the treated enzyme” value is 62.5 (nmol min^− 1).
